The source of these data is patent US7923465B2, “Cannabinoid receptor ligands, pharmaceutical compositions containing them, and process for their preparation” (priority 2005, dated 2011).

Molecules are shown by their SMILES.

Chain of hCB2 (P34972 whole entry): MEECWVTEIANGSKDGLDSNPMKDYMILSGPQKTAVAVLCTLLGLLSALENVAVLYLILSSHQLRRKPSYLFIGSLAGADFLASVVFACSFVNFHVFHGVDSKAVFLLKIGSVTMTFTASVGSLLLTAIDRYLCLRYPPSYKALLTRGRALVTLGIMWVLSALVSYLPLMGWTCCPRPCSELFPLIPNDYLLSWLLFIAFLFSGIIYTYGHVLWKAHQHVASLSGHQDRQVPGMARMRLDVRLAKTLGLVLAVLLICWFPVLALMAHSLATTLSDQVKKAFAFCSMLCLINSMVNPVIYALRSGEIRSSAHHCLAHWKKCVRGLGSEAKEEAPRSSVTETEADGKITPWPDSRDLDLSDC

The target in one assay is hCB2 (Homo sapiens, UniProt P34972). The experiment in a line: In vitro binding assay using hCB2-CHO membranes, [3H]-CP-55,940 displacement (Protocol IV). The arrangement: expressed in transfected cells; host or cells: CHO (hCB2-CHO, generated in-house). Conditions: 1 h, read-out: % Displacement Protocol IV. As to the method:
IV. Protocol for In Vitro Assay Using hCB2-CHO Membranes:
In this assay, [^3H]-CP-55,940 was used as the radioligand to bind human CB2 receptor expressed on the membranes from CHO cells (hCB2-CHO cell line was generated in-house) which can be displaced by unlabeled ligands having affinity to the CB2 receptor.
The assay was performed according to the modified method of Ross et al., 1999 (Br. J. Pharmacol. 128, 735-743). The reaction was set up in a total volume of 200 μl in PEI (0.2%) precoated Millipore GFB filter plates. 1 mM stocks of test compounds were prepared in DMSO and tested at a final concentration of 300 nM. The non-specific binding was determined by 0.5 μM CP-55, 940. The total reaction mixture contained Tris-BSA buffer (50 mM Tris, 5 mM MgCl2, 1 mM EDTA, pH 7.4 with 0.1% BSA), unlabelled CP-55, 940 (0.5 μM) or test samples, [^3H]-CP-55, 940 (0.75 nM) and 25-50 μg of human CB2 receptor preparation. The assay mixture (with or without the test compound) was incubated at 30° C. for 1 hour. The reaction was stopped by rapid filtration under vacuum and the radioactivity on the filters was measured by liquid scintillation counting.
The percent (%) displacement by a test ligand was calculated by comparing the specific bound values.
On to `CC(C)(C)NC(=O)c1nn(-c2ccc(Br)cc2)c2c1C1CCC2C1` (stereo not drawn) [Example 324, N(3)-(tert-Butyl)-1-(4-bromophenyl)-4,5,6,7-tetrahydro-1H-4,7-methano-indazole-3-carboxamide], for which the inhibition at 0.3 µM came out at 88.5%.

Regarding `O=C(NC12CC3CC(CC(C3)C1)C2)c1nn(-c2ccc(F)cc2F)c2c1C1CCC2C1` (stereo not drawn) [Example 334, N(3)-(Adamantan-1yl)-1-(2,4-difluorophenyl)-4,5,6,7-tetrahydro-1H-4,7-methano-indazole-3-carboxamide], the inhibition at 0.3 µM came out at 100%.

In the case of `CC(C)(C)NC(=O)c1nn(Cc2ccc(F)cc2)c2c1C1CCC2C1` (stereo not drawn) [Example 335a, N(3)-(tert-butyl)-1-(4-fluorobenzyl)-4,5,6,7-tetrahydro-1H-4,7-methano-indazole-3-carboxamide], the inhibition at 0.3 µM was found to be 96.5%.

Staying with this assay, now noted: 1 h; hCB2-CHO membranes, [3H]-CP-55,940 displacement; read-out: % Displacement Protocol IV.
`O=C(Nc1ccc(O)cc1)c1nn(-c2ccc(F)cc2F)c2c1C1CCC2C1` (stereo not drawn) [Example 328, N(3)-(4-Hydroxyphenyl)-1-(2,4-difluorophenyl)-4,5,6,7-tetrahydro-1H-4,7-methano-indazole-3-carboxamide]: the inhibition at 0.3 µM came out at 64.4%.

In the case of `O=C(NCc1ccco1)c1nn(-c2ccc(F)cc2F)c2c1C1CCC2C1` (stereo not drawn) [Example 330, N(3)-(2-furylmethyl)-1-(2,4-difluorophenyl)-4,5,6,7-tetrahydro-1H-4,7-methano-indazole-3-carboxamide], the inhibition at 0.3 µM worked out at 64.9%.

With `CC(NC(=O)c1nn(-c2ccc(Cl)cc2)c2c1C1CC3CC(C1)CC2C3)c1ccccc1Cl` (stereo not drawn) [Example 138, N7-[1-(2-Chlorophenyl)ethyl]-5-(4-chlorophenyl)-5,6-diazatetracyclo[7.3.1.1^3,11.0^4,8]tetradeca-4(8),6-diene-7-carboxamide], the inhibition at 0.3 µM stood at 68%.

In the case of `CC(C)(C)NC(=O)c1n[nH]c2c1C1(c3ccc(Cl)c(Cl)c3)CCC2C1` (stereo not drawn) [Example 325, N(3)-(tert-Butyl)-4-(3,4-dichlorophenyl)-4,5,6,7-tetrahydro-1H-4,7-methano-indazole-3-carboxamide], the inhibition at 0.3 µM turned out to be 99.6%.

With `CC12CCC(C1)C(C)(C)C2NC(=O)c1nn(-c2ccc(Cl)cc2Cl)c2c1C1CCC2c2ccccc21` (stereo not drawn) [Example 507, N12-(1,3,3-Trimethylbicyclo[2.2.1]hept-2-yl)-10-(2,4-dichlorophenyl)-10,11-diazatetracyclo[6.5.2.0^2,7.0^9,13]pentadeca-2(7),3,5,9(13),11-pentaene-12-carboxamide], the inhibition at 0.3 µM was found to be 91.7%.

Take `CC(NC(=O)c1nn(-c2ccc(F)cc2F)c2c1C1CC3CC(C1)CC2C3)c1ccccc1Cl` (stereo not drawn) [Example 151, N(7)-[1-(2-Chlorophenyl)ethyl]-5-(2,4-difluorophenyl)-5,6-diazatetracyclo[7.3.1.1^3,11.0^4,8]tetradeca-4(8),6-diene-7-carboxamide]: the inhibition at 0.3 µM was found to be 69.2%.

Regarding `CC(C)(C)NC(=O)c1nn(-c2ccc(Cl)cc2)c2c1C1CCC2C1` (stereo not drawn) [Example 321, N(3)-(tert-Butyl)-1-(4-chlorophenyl)-4,5,6,7-tetrahydro-1H-4,7-methano-indazole-3-carboxamide], the inhibition at 0.3 µM was determined as 92.9%.

On to `O=C(N[C@H](CO)c1ccc(F)cc1)c1nn(-c2ccc(F)cc2F)c2c1C1CCC2C1` (stereo partly drawn) [Example 332, N(3)-[(1S)-2-Hydroxy-1-(4-fluorophenyl)ethyl]-1-(2,4-difluorophenyl)-4,5,6,7-tetrahydro-1H-4,7-methano-indazole-3-carboxamide], for which the inhibition at 0.3 µM came to 70.1%.

Take `CCOc1cc(F)ccc1-n1nc(C(=O)NC(C)(C)C)c2c1C1CCC2C1` (stereo not drawn) [Example 329, N(3)-(tert-Butyl)-1-(2-ethoxy,4-fluorophenyl)-4,5,6,7-tetrahydro-1H-4,7-methano-indazole-3-carboxamide]: the inhibition at 0.3 µM was found to be 88.5%.

With `O=C(NCc1ccccc1Cl)c1nn(-c2ccc(Cl)cn2)c2c1C1CC3CC(C1)CC2C3` [Example 185, N7-(2-Chlorobenzyl)-5-(5-chloro-2-pyridyl)-5,6-diazatetracyclo[7.3.1.1^3,11.0^4,8]tetradeca-4(8),6-diene-7-carboxamide], the inhibition at 0.3 µM came to 60.7%.

`CC(C)(NC(=O)c1nn(-c2ccc(Cl)cc2Cl)c2c1C1CCC2c2ccccc21)c1ccccc1` (stereo not drawn) [Example 508, N12-(1-Methyl-1-phenylethyl)-10-(2,4-dichlorophenyl)-10,11-diazatetracyclo[6.5.2.0^2,7.0^9,13]pentadeca-2,4,6,9(13),11-pentaene-12-carboxamide]: the inhibition at 0.3 µM is 67.7%.

Regarding `CC(C)(C)NC(=O)c1nn(-c2ccc(Cl)cc2Cl)c2c1C1CCC2C1` (stereo not drawn) [Example 327, N(3)-(tert-Butyl)-1-(2,4-dichlorophenyl)-4,5,6,7-tetrahydro-1H-4,7-methano-indazole-3-carboxamide], the inhibition at 0.3 µM was 100%.

As to `Cc1ccc(CN2NC3=C(C4CCC3C4)C2C(=O)NC(C)(C)C)cc1` (stereo not drawn) [Example 336b, N(3)-(tert-butyl)-2-(4-methylbenzyl)-4,5,6,7-tetrahydro-1H-4,7-methano-indazole-3-carboxamide], the inhibition at 0.3 µM was determined as 26.5%.

For `O=C(NCc1ccccc1Cl)c1nn(-c2ccc(F)cc2F)c2c1C1CCC2C1` (stereo not drawn) [Example 297, N5-(2-Chlorobenzyl)-3-(2,4-difluorophenyl)-3,4-diazatricyclo[5.2.1.0^2,6]deca-2(6),4-diene-5-carboxamide], the inhibition at 0.3 µM was 70.3%.

Consider `CC(C)(C)NC(=O)C1C2=C(NN1Cc1ccc(F)cc1)C1CCC2C1` (stereo not drawn) [Example 335b, N(3)-(tert-butyl)-2-(4-fluorobenzyl)-4,5,6,7-tetrahydro-1H-4,7-methano-indazole-3-carboxamide], for which the inhibition at 0.3 µM was determined as 8.7%.

In the case of `CN1CCN(NC(=O)c2nn(-c3ccc(F)cc3F)c3c2C2CCC3C2)CC1` (stereo not drawn) [Example 318, N(3)-(4-methylpiperazino)-1-(2,4-difluorophenyl)-4,5,6,7-tetrahydro-1H-4,7-methano-indazole-3-carboxamide], the inhibition at 0.3 µM was 31%.

Still in this assay, the particulars now being: hCB2-CHO membranes, [3H]-CP-55,940 displacement.
As for `COC(=O)[C@H](CC(C)C)NC(=O)c1nn(-c2ccc(F)cc2F)c2c1C1CCC2C1` (stereo partly drawn) [Example 333, Methyl-(2S)-2-[5-(2,4-difluorophenyl)-4,5-diazatricyclo[5.2.1.0.^2,6]deca-2(6),3-dien-3-ylcarboxamido]-4-methylpentanoate], the “% Displacement Protocol IV” value was determined as 100.00%.

In the case of `CC(C)(C)NC(=O)c1nn(-c2ccc(F)cc2F)c2c1C1CCC2c2ccccc21` (stereo not drawn) [Example 702, N(12)-tert-Butyl-10-(2,4-difluorophenyl)-10,11-diazatetracyclo[6.5.2.0^2,7.0^9,13]tetradeca-2,4,6,9(13),11-pentaene-12-carboxamide], the “% Displacement Protocol IV” value amounted to 33.00%.

With `CC(C)(C)NC(=O)c1nn(-c2ccc(F)cc2F)c2c1[C@H]1CC[C@]2(C)C1(C)C` [Example 411, (4S,7R)—N(3)-tert-Butyl-1-(2,4-difluorophenyl)-7,8,8-trimethyl-4,5,6,7-tetrahydro-1H-methano-indazole-3-carboxamide], the “% Displacement Protocol IV” value came out at 49.68%.

Turning to `O=C(NCc1cccs1)c1nn(-c2ccc(F)cc2F)c2c1C1CCC2C1` (stereo not drawn) [Example 331, N(3)-(2-thiophenemethyl)-1-(2,4-difluorophenyl)-4,5,6,7-tetrahydro-1H-4,7-methano-indazole-3-carboxamide], the “% Displacement Protocol IV” value came to 75.26%.

`CC12CCC(c3c(C(=O)N[C@@H](CO)c4ccccc4)nn(-c4ccc(F)cc4F)c31)C2(C)C` (stereo partly drawn) [Example 410]: the “% Displacement Protocol IV” value was 15.5%.
